# Measured values from paper PMC12332667, “Role of Structural Modifications in Peptidomimetic Compounds as Potential Antimicrobial Agents against Staphylococcus aureus and Streptococcus pyogenes: Balancing Bioavailability, Safety, and Antimicrobial Activity” (ACS Omega, 2025).
# Where “and” joins values, the source holds several entries; their conditions need not be identical. Equal values may be shown once.
# What was measured:
# S. aureus ATCC 43300 = assay: MIC/MBC broth microdilution, S. aureus; format: cell-based, Staphylococcus aureus; conditions: S. aureus
# S. pyogenes ATCC 19615 = assay: MIC/MBC broth microdilution, S. pyogenes; format: cell-based, Streptococcus pyogenes; conditions: S. pyogenes
# Outline: (§1)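 Broth microdilution per NCCLS in BHI, ~10^5 CFU/mL inoculum, serially diluted peptidomimetics (stock 1024 μg/mL in water with 5–10% ethanol or DMSO), 18 h at 37 °C. MIC: lowest concentration with no obvious growth (≥90% of untreated); MBC: ≤3 colonies, ≥99.9% kill.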
# S. cohnii c.i. = assay: MIC/MBC broth microdilution, S. cohnii; format: cell-based, Staphylococcus cohnii
# Outline: as §1
# E. faecalis c.i. = assay: MIC/MBC broth microdilution, E. faecalis; format: cell-based, Enterococcus faecalis
# Outline: as §1
# S. schleiferi c.i. = assay: MIC/MBC broth microdilution, S. schleiferi; format: cell-based, Staphylococcus schleiferi
# Outline: as §1
# S. intemrdius c.i. = assay: MIC/MBC broth microdilution, S. intermedius; format: cell-based, Staphylococcus intermedius
# Outline: as §1
# S. mutans c.i. = assay: MIC/MBC broth microdilution, S. mutans; format: cell-based, Streptococcus mutans
# Outline: as §1
# E. coli ATCC 25922 = assay: MIC/MBC broth microdilution, E. coli; format: cell-based, Escherichia coli
# Outline: as §1
# P. vulgaris ATCC 6896 = assay: MIC/MBC broth microdilution, P. vulgaris; format: cell-based, Proteus vulgaris
# Outline: as §1
# [1] = tested on: K. pneumoniae ATCC 700603; assay: MIC/MBC broth microdilution, K. pneumoniae; format: cell-based
# Outline: as §1
# P. aeruginosa ATCC 10145 = assay: MIC/MBC broth microdilution, P. aeruginosa; format: cell-based
# Outline: as §1
# [2] = Hydrophobicity by reverse-phase chromatography; format: physicochemical; conditions: acetonitrile content in the mobile phase at the retention time
# Text: Reverse-phase chromatography was employed to assess the hydrophobicity characteristics of the peptidomimetics. Hydrophobicity was quantified by determining the acetonitrile content in the mobile phase at the retention time of a peptidyl derivative (Table S2). The least hydrophobic compound (40% acetonitrile) was A-198, which aligns with the calculations of hydrophobicity by SwissADME and pkCSM (Table ). Next in the hydrophobicity sequence were A-197, A-220, A-219, A-174, and A-221, eluting with 42.5-43.9% of acetonitrile. Then there were followed by […], and A-179, with the acetonitrile percentage of 44.8-49.8. The compounds A-176, A-20, A-152, A-134, and A-210 needed over 50% of acetonitrile to be eluted from the column.
# [3] = tested on: immortalized human keratinocytes (HaCaT); assay: LDH cytotoxicity test, keratinocytes; format: cell-based; conditions: 48 h; for cytotoxicity (LDH), in words: 50-150 μg/mL
# Outline: (§2)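 HaCaT keratinocytes and 46BR.1N fibroblasts, 5000 cells per well, grown 24 h, then exposed to peptidomimetics at 50, 100 and 150 μg/mL in serum-free medium for 48 h. LDH release in supernatant read at 450 nm, normalized to untreated (0%) and 1% Triton X-100 (maximal) controls.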
# fibroblasts (46BR.1N) = assay: LDH cytotoxicity test, fibroblasts; format: cell-based; conditions: 48 h; for cytotoxicity (LDH), in words: 50-150 μg/mL
# Outline: as §2
# [4] = tested on: immortalized human HaCaT keratinocytes; assay: XTT cell proliferation assay, keratinocytes; format: cell-based; conditions: for effect on proliferation, in words: XTT, 48 and 72 h, 0.01–150 μg/mL
# Outline: (§3)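 Cells at 37 °C, 5% CO2 received peptidomimetics in serum-free HG-DMEM for 48 or 72 h; for 72 h, half the medium was renewed and peptide re-added at 48 h. XTT reagent was then incubated 4 h and absorbance read at 490 nm; Mann–Whitney U test, p ≤ 0.05.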
# [5] = tested on: human dermal fibroblast cell line (46BR.1N); assay: XTT cell proliferation assay, fibroblasts; format: cell-based; conditions: for effect on proliferation, in words: XTT, 48 and 72 h, 0.01–150 μg/mL
# Outline: as §3
# S. agalactiae ATCC 27956 = assay: MIC/MBC broth microdilution, S. agalactiae; format: cell-based, Streptococcus agalactiae; conditions: S. agalactiae
# Outline: as §1
# [6] = up to 150 μg/mL, A-193 and A-179 after 48 h
structure (smiles),measurement,setting,value
CC(C)[C@@H](CNC(=O)C(=Cc1ccccc1)c1ccccc1)NC(=O)[C@H](CCCNC(=N)N)NC(=O)[C@H](CCCNC(=N)N)NC(=O)OCc1ccccc1 [Compound A-179],MBC,S. aureus ATCC 43300; H2O,32 µg/mL
same,MIC,S. aureus ATCC 43300; H2O,32 µg/mL
same,MBC,S. aureus ATCC 43300; water additive DMSO,32 µg/mL
same,MIC,S. aureus ATCC 43300; water additive DMSO,16 µg/mL
same,MBC,S. aureus ATCC 43300; water additive EtOH,32 µg/mL
same,MIC,S. aureus ATCC 43300; water additive EtOH,32 µg/mL
same,MBC,S. pyogenes ATCC 19615; H2O,32 µg/mL
same,MIC,S. pyogenes ATCC 19615; H2O,16 µg/mL
same,MBC,S. pyogenes ATCC 19615; water additive DMSO,32 µg/mL
same,MIC,S. pyogenes ATCC 19615; water additive DMSO,16 µg/mL
same,MBC,S. pyogenes ATCC 19615; water additive EtOH,32 µg/mL
same,MIC,S. pyogenes ATCC 19615; water additive EtOH,8 µg/mL
same,MBC,S. cohnii c.i.; H2O,32 µg/mL
same,MIC,S. cohnii c.i.; H2O,16 µg/mL
same,MBC,S. cohnii c.i.; water additive DMSO,32 µg/mL
same,MIC,S. cohnii c.i.; water additive DMSO,32 µg/mL
same,MIC,S. cohnii c.i.; water additive EtOH,32 µg/mL
same,MBC,E. faecalis c.i.; water additive DMSO,256 µg/mL
same,MIC,E. faecalis c.i.; water additive DMSO,256 µg/mL
same,MBC,E. faecalis c.i.; water additive EtOH,256 µg/mL
same,MBC,S. schleiferi c.i.; water additive EtOH,256 µg/mL
same,MBC,S. intemrdius c.i.; H2O,32 µg/mL
same,MIC,S. intemrdius c.i.; H2O,16 µg/mL
same,MBC,S. intemrdius c.i.; water additive DMSO,32 µg/mL
same,MIC,S. intemrdius c.i.; water additive DMSO,16 µg/mL
same,MBC,S. intemrdius c.i.; water additive EtOH,16 µg/mL
same,MIC,S. intemrdius c.i.; water additive EtOH,16 µg/mL
same,MIC,S. mutans c.i.; H2O,> 512 µg/mL
same,MIC,S. mutans c.i.; water additive DMSO,> 512 µg/mL
same,MIC,S. mutans c.i.; water additive EtOH,> 512 µg/mL
same,MIC,E. coli ATCC 25922; H2O,> 512 µg/mL
same,MIC,E. coli ATCC 25922; water additive DMSO,> 512 µg/mL
same,MIC,E. coli ATCC 25922; water additive EtOH,> 512 µg/mL
same,MIC,P. vulgaris ATCC 6896; H2O,> 512 µg/mL
same,MIC,P. vulgaris ATCC 6896; water additive DMSO,> 512 µg/mL
same,MIC,P. vulgaris ATCC 6896; water additive EtOH,> 512 µg/mL
same,MIC,[1]; H2O,512 µg/mL
same,MIC,[1]; water additive DMSO,> 512 µg/mL
same,MIC,[1]; water additive EtOH,> 512 µg/mL
same,MIC,P. aeruginosa ATCC 10145; H2O,256 µg/mL
same,MIC,P. aeruginosa ATCC 10145; water additive DMSO,> 512 µg/mL
same,MIC,P. aeruginosa ATCC 10145; water additive EtOH,> 512 µg/mL
same,% AcCN (acetonitrile required for elution from the column),[2],49.8% and 44.8–49.8%
same,"cytotoxicity (LDH), in words",[3],cytotoxic to keratinocytes at all concentrations
same,"cytotoxicity (LDH), in words",fibroblasts (46BR.1N),less pronounced in fibroblasts
same,"effect on proliferation, in words",[4],negative impact
same,antiproliferative effect (decrease vs control),[4]; [6],~50%
same,"effect on proliferation, in words",[5],negative impact
same,antiproliferative effect (decrease vs control),[5]; [6],~50%
CC(C)C[C@H](NC(=O)[C@H](CCCNC(=N)N)NC(=O)OCc1ccccc1)C(=O)N[C@H](CN)C(C)C [Compound A-197],MIC,S. aureus ATCC 43300; H2O,> 512 µg/mL
same,MIC,S. aureus ATCC 43300; water additive DMSO,> 512 µg/mL
same,MIC,S. aureus ATCC 43300; water additive EtOH,> 512 µg/mL
same,MIC,S. pyogenes ATCC 19615; H2O,> 512 µg/mL
same,MIC,S. pyogenes ATCC 19615; water additive DMSO,> 512 µg/mL
same,MIC,S. pyogenes ATCC 19615; water additive EtOH,> 512 µg/mL
same,MIC,S. cohnii c.i.; H2O,> 512 µg/mL
same,MIC,S. cohnii c.i.; water additive DMSO,> 512 µg/mL
same,MIC,S. cohnii c.i.; water additive EtOH,> 512 µg/mL
same,MIC,E. faecalis c.i.; H2O,> 512 µg/mL
same,MIC,E. faecalis c.i.; water additive DMSO,> 512 µg/mL
same,MIC,E. faecalis c.i.; water additive EtOH,> 512 µg/mL
same,MIC,S. schleiferi c.i.; H2O,256 µg/mL
same,MIC,S. schleiferi c.i.; water additive DMSO,256 µg/mL
same,MIC,S. schleiferi c.i.; water additive EtOH,256 µg/mL
same,MIC,S. agalactiae ATCC 27956; H2O,> 512 µg/mL
same,MIC,S. agalactiae ATCC 27956; water additive DMSO,> 512 µg/mL
same,MIC,S. agalactiae ATCC 27956; water additive EtOH,> 512 µg/mL
same,MBC,S. mutans c.i.; H2O,512 µg/mL
same,MIC,S. mutans c.i.; H2O,256 µg/mL
same,MBC,S. mutans c.i.; water additive EtOH,256 µg/mL
same,MIC,E. coli ATCC 25922; H2O,> 512 µg/mL
same,MIC,E. coli ATCC 25922; water additive DMSO,> 512 µg/mL
same,MIC,E. coli ATCC 25922; water additive EtOH,> 512 µg/mL
same,MIC,P. vulgaris ATCC 6896; H2O,> 512 µg/mL
same,MIC,P. vulgaris ATCC 6896; water additive DMSO,> 512 µg/mL
same,MIC,P. vulgaris ATCC 6896; water additive EtOH,> 512 µg/mL
same,MIC,[1]; H2O,> 512 µg/mL
same,MIC,[1]; water additive DMSO,> 512 µg/mL
same,MIC,[1]; water additive EtOH,> 512 µg/mL
same,MIC,P. aeruginosa ATCC 10145; H2O,> 512 µg/mL
same,MIC,P. aeruginosa ATCC 10145; water additive DMSO,> 512 µg/mL
same,MIC,P. aeruginosa ATCC 10145; water additive EtOH,> 512 µg/mL
same,% AcCN (acetonitrile required for elution from the column),[2],42.5%
same,"cytotoxicity (LDH), in words",[3],no cytotoxicity
same,concentration at which cytotoxic effect starts,[3]; LDH,> 150 µg/mL
same,"cytotoxicity (LDH), in words",fibroblasts (46BR.1N),no cytotoxicity
same,concentration at which cytotoxic effect starts,fibroblasts (46BR.1N); LDH,> 150 µg/mL
same,"effect on proliferation, in words",[4],did not exert any negative impact
same,"effect on proliferation, in words",[5],did not exert any negative impact
